Data published in publication PMC11175446 (2024).

Assays:
[1] = system: Broccoli run-off transcript of the 251 bp T7 promoter-O1-Broccoli template (RNA, aptamer) GGCAAUUGUGAGCGGAUAACAAUUCUAGAUUGCCAUGUGUAUGUGGGAGACGGUCGGGUCCAGAUAUUCGUAUCUGUCGAGUAGAGUGUGGGCUCCCACAUACUCUGAUGAUCCUUCGGGAUCAUUCAUGGCAAGGAUCCG; test: fluorescence turn-on during in vitro transcription; conditions: 25 mM NaCl, 8 mM MgCl2; 40 mM Tris-HCl pH 8.0, 2 mM spermidine, 5 mM DTT, 34 °C, 20 μM dye; NTPs, T7 RNAP present
[2] = system: 2xF30-Broccoli RNA (Bi), transcript of T7 promoter-Broccoli template without operator (RNA, aptamer) UUGCCAUGUGUAUGUGGGAGACGGUCGGGUCCAGAUAUUCGUAUCUGUCGAGUAGAGUGUGGGCUCCCACAUACUCUGAUGAUCCUUCGGGAUCAUUCAUGGCAA; test: fluorescence turn-on during in vitro transcription; conditions: 25 mM NaCl, 8 mM MgCl2; 40 mM Tris-HCl pH 8.0, 2 mM spermidine, 5 mM DTT, 34 °C, 20 μM dye; NTPs, T7 RNAP present

binding [1]: yes | binding [2]: yes
SMILES: CC1=N/C(=C\c2cc(F)c(O)c(F)c2)C(=O)N1CC(F)(F)F
